According to US5334761A, “Cationic lipids” (Life Technologies, Inc., priority 1992, dated 1994):
Where a name gives a salt, the structure may show the parent alone.

Columns and labels:
[1] = % protein (toxicity estimate, Bradford) after transfection; type: cell-based, rat; settings: rat, pc12 cells; 40 μg lipid; 2 μg pCMVCAT; 6 h DMEM
Description: (§1) A one-to-one mixture (by weight) of the desired lipid and dioleylphosphatidyl ethanolamine was prepared in CHCl3. The CHCl3 was removed on the rotary evaporator to obtain a thin film of lipid mixture. The mixture was hydrated with enough water to obtain approximately 1.25 mg of lipid per ml of solution. The solution was passed through a microfluidizer twice and diluted to 1 mg/ml. The liposome formulation was then filtered through a 0.2 μ filter. Compound 8 was also formulated without DOPE either by sonication at 1 mg/ml in water or by dissolving a dried lipid film with ethanol and then adding water to give a final concentration of 2.5 mg/ml. Ethanol was 10% of that volume. In some instances, this was further diluted with water to 1 mg/ml, 4% ethanol.
(§2) Baby hamster kidney (BHK-21) , COS-7, HeLa-S3 cells, and normal human fibroblasts isolated from newborn foreskin dermis were grown in Dulbecco's-modified Eagle's medium (DMEM) containing 10% fetal bovine serum (FBS), 2 mM L-glutamine (gln), 0.1 mM MEM nonessential amino acids (NEAA), 100 U/ml penicillin, and 100 μg/ml streptomycin. […]
(§3) The "% protein" column indicates the relative amount of protein in the sample tested for CAT activity and therefore provides a way to estimate toxicity of the compounds being tested. […] Protein was measured using a commercially available Bradford protein assay (BioRad Laboratories, Richmond, Ca.). […]

PC12 cells = experiment: as above; type: cell-based, rat; settings: PC12
Description: as §1, §2, §3

Jurkat cells [2] = experiment: CAT transient transfection; type: cell-based, human
Description: as §1
(§4) Baby hamster kidney (BHK-21) , COS-7, HeLa-S3 cells, and normal human fibroblasts isolated from newborn foreskin dermis were grown in Dulbecco's-modified Eagle's medium (DMEM) containing 10% fetal bovine serum (FBS), 2 mM L-glutamine (gln), 0.1 mM MEM nonessential amino acids (NEAA), 100 U/ml penicillin, and 100 μg/ml streptomycin. NIH-3T3 cells were grown in DMEM containing 10% calf serum (CS), 2 mMgln, 0.1 mM NEAA 100 U/ml penicillin, and 100 μg/ml streptomycin. PC12 cells were grown in DMEMcontaining 10% horse serum, 5% FBS, 2 mM gln, 0 1 mMNEAA, 100 U/ml penicillin and 100 μ/ml streptomycin. Jurkat cells (human lymphoid cell line) were grown in RPMI-1640 supplemented with 10% FBS, 2mML-glutamine, 100 U/ml penicillin, and 100 μg/ml streptomycin. Human keratinocytes were isolated from newborn foreskin epidermis and cultured in Keratinocyte Growth Medium (Clonetics, San Diego, Ca.). All cell lines were maintained in a humidified incubator with a 5% CO2 atmosphere at 37° C.
pSV2CAT (5.0 Kb) was described previously (Gorman, C. M. et al. (1982) Mol. Cell. Biol. 2:1044). pCMVCAT (5.0 Kb) was also described previously (Foecking M. K. and Hofstetter, H. (1986) Gene 45:101). Plasmid DNA was purified by isopycnic centrifugation in CsCl/EtBr gradients after recovery by alkaline lysis (Maniatis, T. et al. (1982) in Molecular Cloning: A Laboratory Manual, Cold Spring Harbor Laboratory, Cold Spring Harbor, N.Y., pp. 90-91).
(§5) For transient nuclear expression of pSV2CAT or pCMVCAT in Jurkat cells, cells were washed with Opti-MEM I or serum-free RPMI 1640 containing 2 mM gln and plated in six-well plates at a density of 3×10^6 cells per well in 0.8 ml Opti-MEM I or RPMI 1640. For each transfection, 5 μg pSV2CAT DNA or 2 μg pCMVCAT DNA was diluted in 100 μl Opti-MEM I. Lipids were diluted separately in another 100 μl aliquot of Opti-MEMI. The two solutions were then mixed in a polystyrene tube and incubated for 10-15 min at room temperature. The DNA-liposome complex was added to the cell suspensions and incubated 6 hours at 37° C., after which 4 ml growth medium were added per well (RPMI-1640; 10% FBS). Phorbol myristate acetate (Sigma Chemical Co., St. Louis, Mo.) and phytohemagglutinin (Sigma) were also added to a final concentration of 50 ng/ml and 1 μg/ml, respectively, to activate the cells. Cells were harvested at approximately 48 hours post-transfection by centrifugation. Cell lysates were prepared by resuspending cell pellets at 0° C. in 0.1 M Tris-HC1 pH 8.0 containing 0.1% Triton X-100 and freeze-thawing once. Cell lysates were cleared by centrifugation and assayed for CAT activity.
Cell lysates were assayed for CAT activity as described by Neumann et al. (1987) BioTechniques 5:444 using [^14 C]-butyryl coenzyme A (New England Nuclear, Boston, Mass.). The enzyme reactions were incubated for 2 hrs at 37° C., overlayed with 3.0 ml Econofluor (New England Nuclear) and then incubated for an additional 2 hrs to allow diffusion of the acetylated chloramphenicol into the scintillation fluid. CAT activity was determined by measuring radioactivity in a liquid scintillation counter. […]

[3] = % protein (toxicity estimate, Bradford) after transfection; type: cell-based, human; settings: human, jurkat cells, 15 μg lipid; 2 μg pCMVCAT; 6 h RPMI1640
Description: as §1, §4, §5
(§6) The "% protein" column indicates the relative amount of protein in the sample tested for CAT activity and therefore provides a way to estimate toxicity of the compounds being tested. The "CAT Activity" column indicates the relative transfection effectiveness of the lipid formulation in the various cell lines. The control sample was a cell culture grown under similar conditions as those that were transfected, but with no DNA or cationic lipid added. Protein was measured using a commercially available Bradford protein assay (BioRad Laboratories, Richmond, Ca.).
(§7) Jurkat cells (3 × 10^6 cells) were transfected in OPTIMEM with
(§8) μg of pSV2CAT DNA for 6 hours.
(§9) DNA-lipid complexes were made in OPTIMEM. Jurkat cells (3 × 10^
(§10) cells) were transfected in RPMI1640 with 2 μg of pCMVCAT DNA for 6

Jurkat cells [4] = experiment: as above; type: cell-based, human; settings: Jurkat
Description: as §1, §4, §5, §6, §7, §8, §9, §10

## CCCCCCCC/C=C\CCCCCCCCOCC(C[N+](C)(C)CCNC(=O)C(CCCNCCCN)NCCCN)OCCCCCCCC/C=C\CCCCCCCC (stereo not drawn) [Compound 8, 1-Propanaminium, N-[2-[[2,5-bis[(3-amino]-1-oxopentyl]amino]ethyl]-n,n-dimethyl-2,3,-bis(9-octadecenyloxy)-, tetra(trifluoroacetate) salt]
[1]
  viability at 6 h: 66%
PC12 cells
  toxicity (in words): minimal toxicity
Jurkat cells [2]; 15 μg lipid, 2 μg pCMVCAT, 6 h RPMI1640
  CAT ACTIVITY: 44,996 CPM/150 ul
Jurkat cells [2]; Jurkat
  DNA transfection (in words): highly effective
[3]
  viability at 6 h: 47%
Jurkat cells [4]
  toxicity (in words): minimal toxicity
